Data as given in the Deep4Chem optical property database.
Values joined by “and” are separate entries in the source; they are usually repeats but may differ in a detail not shown here. Equal entries are not always repeated. Blank lines part the entries; values can stand above or below the compound they belong to.

Assay: solvent given as SMILES

- absorption maximum (in ClC(Cl)Cl): 493 nm
SMILES: N#Cc1nc(N(Cc2ccccc2)Cc2ccccc2)c(C#N)nc1N(Cc1ccccc1)Cc1ccccc1

- absorption maximum (in ClCCl): 733 nm
SMILES: CCN(CC)c1ccc2c(-c3ccccc3C(=O)O)c3c([o+]c2c1)/C(=C/c1ccc(N(C)C)s1)CCC3

- absorption maximum (in ClCCl): 518 nm
SMILES: O=[N+]([O-])c1cccc2c1ccc1[n+]2[B-](F)(F)n2c-1cc1c3ccccc3c3ccccc3c12

- absorption maximum (in CC#N): 451 nm
- absorption maximum (in CN(C)C=O): 488 nm
- absorption maximum (in ClCCl): 476 nm
SMILES: CCN(CC)c1ccc(/C=N/c2cc3nc4ccccc4nc3cc2/N=C/c2ccc(N(CC)CC)cc2O)c(O)c1

- absorption maximum (in CC#N): 532 nm
- absorption maximum (in CCCCCC): 559 nm
- absorption maximum (in CO): 552 nm
SMILES: COc1ccc2c(c1)N(c1ccccc1-c1ccccc1)c1cc3c(cc1=N2)Oc1c(cc(C(C)(C)C)cc1C(C)(C)C)N=3

SMILES: Nc1ccc2c(C(F)(F)F)cc(=O)oc2c1
- absorption maximum (in C1CCC2CCCCC2C1): 349 nm
- absorption maximum (in C1CCCCC1): 348 nm
- absorption maximum (in C1COCCO1): 364 nm
- absorption maximum (in CC1CCCCC1): 348 nm
- absorption maximum (in CC#N): 365 nm and 367 nm
- absorption maximum (in CC(C)=O): 371 nm
- absorption maximum (in CC(C)O): 384 nm
- absorption maximum (in CCC(C)CC): 347 nm
- absorption maximum (in CCCC(C)C): 347 nm
- absorption maximum (in CCCCCC): 347 nm
- absorption maximum (in CCCCCCCCO): 383 nm
- absorption maximum (in CCCCCCO): 384 nm
- absorption maximum (in CCCCO): 383 nm
- absorption maximum (in CCO): 383 nm
- absorption maximum (in CCOC(C)=O): 368 nm
- absorption maximum (in CN(C)C=O): 378 nm
- absorption maximum (in CO): 378 nm
- absorption maximum (in CS(C)=O): 386 nm

- absorption maximum (in ClC(Cl)Cl): 364 nm
SMILES: c1ccc2c(c1)Oc1ccccc1C21c2cc(-c3ccc4ccc5cccc6ccc3c4c56)ccc2-c2ccc(-c3ccc4ccc5cccc6ccc3c4c56)cc21

- absorption maximum (in CC#N): 514 nm
- absorption maximum (in CS(C)=O): 524 nm
SMILES: [O-]c1c(-c2nc3ccccc3s2)cc2ccc3cccc4ccc1c2c34

- absorption maximum (in ClCCl): 360 nm
SMILES: CCn1c2c(-c3cccs3)cc(C(C)(C)C)cc2c2cc(C(C)(C)C)cc(-c3cccs3)c21

- absorption maximum (in ClCCl): 654 nm
SMILES: CC(C)[Si](C#Cc1c2cc3ccccc3cc2c(C#Cc2ccc(C(F)(F)F)cc2)c2cc3ccccc3cc12)(C(C)C)C(C)C

- absorption maximum (in ClCCl): 648 nm
SMILES: CCCCN1C(=O)c2cc(Oc3ccc(C(C)(C)C)cc3)c3c4c(Oc5ccc(C(C)(C)C)cc5)cc5c(=O)n6c(c7cc(Oc8ccc(C(C)(C)C)cc8)c(c8c(Oc9ccc(C(C)(C)C)cc9)cc(c2c38)C1=O)c4c57)=Cc1ccc2ccccc2[n+]1[B-]6(F)F

- absorption maximum (in C1CCCCC1): 377 nm
- absorption maximum (in CC#N): 377 nm
- absorption maximum (in CO): 372 nm
- absorption maximum (in ClCCl): 380 nm
- absorption maximum (in O): 430 nm
SMILES: N#Cc1ccc(-c2nc(-c3ccccc3)c3ccccn23)cc1

SMILES: O=S(=O)(c1ccc(-c2ccc(-n3c4ccccc4c4ccccc43)cc2)cc1)c1ccc(-c2ccc(-n3c4ccccc4c4ccccc43)cc2)cc1
- absorption maximum (in Cc1ccccc1): 341 nm

SMILES: CN1C(=CC2=C([O-])C(=CC3=[N+](C)c4ccccc4C3(C)C)C2=C2C(=O)NC(=O)NC2=O)C(C)(C)c2ccccc21
- absorption maximum (in ClC(Cl)Cl): 644 nm

- absorption maximum (in ClC(Cl)Cl): 338 nm
- absorption maximum (in ClCCl): 339 nm
SMILES: O=[N+]([O-])c1ccc(C#Cc2ccc3ccccc3c2)cc1

- absorption maximum (in C1CCOC1): 450 nm
SMILES: FC(F)(F)c1ccc(/C=C2\C=C(c3ccccc3)C=C2c2ccccc2)cc1

SMILES: CC(C)(C)c1ccc2c(c1)c1cc(C(C)(C)C)ccc1n2-c1ccc(-c2nc(-c3ccc(P(=O)(c4ccccc4)c4ccccc4)cc3)nc(-c3ccc(P(=O)(c4ccccc4)c4ccccc4)cc3)n2)cc1
- absorption maximum (in C1CCOC1): 364.73 nm
- absorption maximum (in CC#N): 361.43 nm
- absorption maximum (in CC(C)=O): 366.18 nm
- absorption maximum (in CN(C)C=O): 365.92 nm
- absorption maximum (in Cc1ccccc1): 375.96 nm
- absorption maximum (in ClC(Cl)Cl): 435.78 nm
- absorption maximum (in ClCCl): 375.3 nm

SMILES: Cc1ccc(/C(C#N)=C/c2cc(/C=C(\C#N)c3ccc(C)cc3)c(-c3ccc(N(c4ccccc4)c4ccccc4)cc3)cc2-c2ccc(N(c3ccccc3)c3ccccc3)cc2)cc1
- absorption maximum (in C1CCCCC1): 385 nm
- absorption maximum (in C1CCOC1): 391 nm
- absorption maximum (in CCCCCC): 385 nm
- absorption maximum (in CCOC(C)=O): 393 nm
- absorption maximum (in Cc1ccccc1): 391 nm
- absorption maximum (in ClC(Cl)Cl): 385 nm
- absorption maximum (in ClCCl): 393 nm

- absorption maximum (in ClCCl): 445 nm
SMILES: N#CC(C#N)=Cc1ccc2c(c1)[nH]c1c3ccccc3sc21

- absorption maximum (in ClCCl): 381 nm
SMILES: N#Cc1ccc(-c2cn3ccc[n+]3[n-]2)cc1

- absorption maximum (in CO): 327 nm
SMILES: COc1ccc(-c2nc(-c3cccc(C#N)c3)[nH]c2-c2ccc(OC)cc2)cc1

SMILES: N#Cc1nc(-c2ccc(N3c4ccccc4Oc4ccccc43)cc2)c(-c2ccc(N3c4ccccc4Oc4ccccc43)cc2)nc1C#N
- absorption maximum (in Cc1ccccc1): 473 nm

- absorption maximum (in ClCCl): 449 nm
SMILES: CN(C)c1ccc(C2=CC3=C(c4ccc(C=O)cc4)[C@H]4c5ccccc5[C@]3(S2)c2ccccc24)cc1

SMILES: CCCCN1C(=O)C(=C/C=C/C=C/C=C2N(CCCC)c3ccccc3N2CCCC)C(=O)N(CCCC)C1=S
- absorption maximum (in CC#N): 540 nm
- absorption maximum (in CCCCCC): 678 nm
- absorption maximum (in CCO): 492 nm
- absorption maximum (in CN(C)C=O): 549 nm
- absorption maximum (in CO): 483 nm
- absorption maximum (in Cc1ccccc1): 689 nm
- absorption maximum (in ClC(Cl)Cl): 658 nm
- absorption maximum (in ClCCl): 642 nm
- absorption maximum (in OCC(F)(F)F): 464 nm

- absorption maximum (in ClCCl): 477 nm
SMILES: CCCCCCOc1cc(C=C(C#N)C#N)c(OCCCCCC)cc1C=C(C#N)C#N

- absorption maximum (in ClCCl): 334 nm
SMILES: CC(C)(C)NC(=O)c1ccc(F)c2ccc3c4ccccc4c4ccccc4c3c12

- absorption maximum (in CS(C)=O): 454 nm
- absorption maximum (in ClCCl): 441 nm
SMILES: CCNc1cc2oc(=O)c3c(=O)oc4ccccc4c3c2cc1C

- absorption maximum (in ClCCl): 450 nm
SMILES: COc1ccc(-c2c3ccccc3c(-c3ccc(OC)cc3)c3cc4sc(C)cc4cc23)cc1

- absorption maximum (in O): 487 nm
SMILES: CC[n+]1nc2cc3c(cc2c2cc(C)ccc21)N(C)CCC3

SMILES: C(=C\c1ccc(-c2ccc(/C=C/c3ccc(-n4c5ccccc5c5ccccc54)cc3)s2)s1)/c1ccc(-n2c3ccccc3c3ccccc32)cc1
- absorption maximum (in Cc1ccccc1): 440.22 nm

- absorption maximum (in CCO): 590 nm
- absorption maximum (in ClCCl): 587 nm
- absorption maximum (in O): 588 nm
SMILES: CCOC(=O)c1ccccc1-c1c2ccc(=[N+](CC)CC)cc-2oc2c1oc1cc(N)ccc12

- absorption maximum (in ClCCl): 576 nm
SMILES: Cc1cc(C)c(C2=C3C=C(/C=C/C(=O)OCc4ccccc4)C=[N+]3[B-](F)(F)n3cc(/C=C/C(=O)OCc4ccccc4)cc32)c(C)c1

- absorption maximum (in ClC(Cl)Cl): 388 nm
SMILES: c1ccc(-c2nc(-c3ccccn3)sc2N(c2ccccc2)c2ccccc2)cc1

- absorption maximum (in C1CCCCC1): 305 nm
SMILES: COc1ccc(-c2ccc(-c3ccc(C#N)cc3)cc2)cc1

SMILES: Cc1ccc(N(c2ccc(C)cc2)c2ccc(-c3ccc(-c4ccc(N(c5ccc(C)cc5)c5ccc(C)cc5)cc4)c4nsnc34)cc2)cc1
- absorption maximum (in Cc1ccccc1): 474 nm
- absorption maximum (in ClCCl): 485 nm

- absorption maximum (in ClCCl): 379 nm
SMILES: C[Si]1(C)c2cc(-c3ccccc3)ccc2C=Cc2ccc(-c3ccccc3)cc21

- absorption maximum (in C1CCCCC1): 352 nm
SMILES: CB1C=Cc2ccc3ccccc3c2N1

SMILES: Cn1c(=O)c(/N=N/c2ccc(S(=O)(=O)O)c3ccccc23)c(O)c2ccccc21
- absorption maximum (in C1CCOC1): 467 nm
- absorption maximum (in CC(C)=O): 465 nm
- absorption maximum (in CCOC(C)=O): 464 nm
- absorption maximum (in CO): 468 nm
- absorption maximum (in CS(C)=O): 470 nm
- absorption maximum (in Cc1ccccc1): 469 nm
- absorption maximum (in ClCCl): 467 nm
- absorption maximum (in O): 456 nm

- absorption maximum (in ClCCl): 350 nm
SMILES: N#Cc1ccc(C2=Cc3ccccc3P2(=O)c2ccccc2)cc1 (stereo not drawn)

- absorption maximum (in O): 558 nm
SMILES: CC1(C)C2=C3C=C4C5=[N+](CCC4OC3CCN2c2ccc(CC(=O)NCCCCCCO)cc21)c1ccc(S(=O)(=O)[O-])cc1C5(C)C (stereo not drawn)

- absorption maximum (in C1COCCO1): 326 nm
- absorption maximum (in CC#N): 325 nm
- absorption maximum (in CCCCCC): 343 nm
- absorption maximum (in CCCCCCC): 344 nm
- absorption maximum (in CCCO): 329 nm
- absorption maximum (in CCOC(C)=O): 326 nm
- absorption maximum (in CS(C)=O): 334 nm
- absorption maximum (in ClC(Cl)Cl): 329 nm
- absorption maximum (in ClCCl): 331 nm
SMILES: COc1ccc(C#Cc2ccc(C#N)cc2)cc1OC

- absorption maximum (in ClCCl): 536 nm
SMILES: COc1ccc(C2=C3C=C(/C=C/C(=O)OC(C)(C)C)C=[N+]3[B-](F)(F)n3cccc32)cc1

- absorption maximum (in C1COCCO1): 480 nm
- absorption maximum (in CC(C)O): 490 nm
- absorption maximum (in CCCCCCCCO): 489 nm
- absorption maximum (in CCCCO): 491 nm
- absorption maximum (in CCCO): 495 nm
- absorption maximum (in CCO): 498 nm
- absorption maximum (in CO): 498 nm
- absorption maximum (in CS(C)=O): 491 nm
- absorption maximum (in ClC(Cl)Cl): 500 nm
- absorption maximum (in ClCCl): 500 nm
SMILES: CN(C)c1ccc(/C=C/c2cc[n+](Cc3cc(C[n+]4ccc(/C=C/c5ccc(N(C)C)cc5)cc4)cc(C[n+]4ccc(/C=C/c5ccc(N(C)C)cc5)cc4)c3)cc2)cc1

SMILES: CC(C)[Si](C#Cc1ccc(-c2c3cccc4c5cccc6c(-c7ccc(C#C[Si](C(C)C)(C(C)C)C(C)C)cc7)c7cccc8c9cccc2c9c(c34)c(c65)c78)cc1)(C(C)C)C(C)C
- absorption maximum (in Cc1ccccc1): 727 nm

- absorption maximum (in CCCCCC): 608 nm
- absorption maximum (in CCCCCCCCO): 612 nm
- absorption maximum (in CCOC(C)=O): 606 nm
- absorption maximum (in CN(C)C=O): 612 nm
- absorption maximum (in ClCCl): 612 nm
SMILES: CC1=CC(C)=[N+]2C1=Cc1c3ccccc3c(C#Cc3ccccc3)n1[B-]2(F)F

SMILES: CC1(C)c2ccccc2-c2cc3c4ccccc4n(-c4ccc(-c5nc(-c6ccccc6)nc(-c6ccccc6)n5)cc4)c3cc21
- absorption maximum (in Cc1ccccc1): 362 nm

- absorption maximum (in C1CCOC1): 356 nm
SMILES: COc1ccc(C(=Cc2ccc(C=O)cc2)c2ccc(OC)cc2)cc1

- absorption maximum (in ClCCl): 356 nm
SMILES: Cc1cccc2nc(-c3ccc(-c4cc(=O)cc(-c5ccccc5)o4)cc3)c(NC3CCCCC3)n12

- absorption maximum (in c1ccccc1): 410 nm
SMILES: CCOC(=O)c1sc2nc3c(c(C#N)c2c1N)CCCCCC3

- absorption maximum (in ClCCl): 424 nm
SMILES: CCCCCCc1cc2c(=O)c3cc(CCCCCC)cc4c(=O)c5cc(CCCCCC)cc6c(=O)c(c1)c2n(c34)c65

SMILES: COc1ccc(C#Cc2nc3ccccc3nc2-c2cn(C)c3ccccc23)cc1
- absorption maximum (in C1CCOC1): 408 nm
- absorption maximum (in CC#N): 407 nm
- absorption maximum (in CC(C)=O): 408 nm
- absorption maximum (in CC(C)O): 415 nm
- absorption maximum (in CCO): 415 nm
- absorption maximum (in CCOC(C)=O): 405 nm
- absorption maximum (in CO): 415 nm
- absorption maximum (in Cc1ccccc1): 407 nm
- absorption maximum (in ClCCl): 408 nm
